# Marks after values point to notes of the source that are not given here. Where a SMILES comes first, the peptide text is derived from it.
# Test system: purulent incised crushed wounds of the femural soft tissues
# Assay: Healing of purulent incised crushed wounds of the soft tissues
# Type: in vivo, shinshilla rabbits
# Design: key: 1 point - absent; 2 points - single (traces); 3 points - few; 4 points - diffuse (moderately); 5 points - many-;; 6 points - very many
# Conditions: rabbits, 1 μkg i.m. daily 5 days
# Source text: The efficacy of L-Lys-L-Glu dipeptide was estimated on the model of purulent incised crushed wounds of the femural soft tissues in shinshilla rabbits of both sexes with body weight 2-3 kg. Therefore, the rabbits underwent shaving in the area of femural soft tissues with subsequent incision 5 cm long and 2 sm deep. Soft tissues (muscles, subcutaneous fat) were crushed with Kocher 's forcepts and infected with the pathogenic mixture Staphylococcus aureus, strain 186. Afterwards, the wound was sutured. In 72 hours the sutures were lifted; and the wound was treated with 3% solution of hydrogen peroxide.
# The animals of experimental group were injected intramuscularly every day for five days with dipeptide L-Lys-L-Glu in a single dose 1 μkg per injection. Control rabbits were injected with sodium chloride solution according to the same scheme. In the process of treatment the wounds were treated with antiseptic remedies for external use.
# The estimation of L-Lys-L-Glu dipeptide efficacy in the dynamics of the inflammatory process regression was based on the terms of crust rejection and wound clearance from the pyo-necrotic mass, and appearance of the granular tissue in the wound and beginning of edge epithelization. […] The activity of tissue enzymes was also estimated (5,6,7).
smiles,measurement,setting,value
"NCCCC[C@H](N)C(=O)N[C@@H](CCC(=O)O)C(=O)O [L-Lys-L-Glu dipeptide, L-lysil-L-glutamic acid] (H-Lys-Glu-OH)",Acid phosphotase in histiocytes,day 6,5*
same,Alcaline phosphotase in vessels,day 14,5
same,Acid phosphotase in histiocytes,day 21,5
same,Alcaline phosphotase in leukocytes,day 21,5
same,Alcaline phosphotase in vessels,day 21,5*
same,Acid phosphotase in histiocytes,day 28,5*
same,Acid phosphotase in histiocytes,day 40,5*
same,Alcaline phosphotase in leukocytes,day 40,5

# From patent US6642201B1, “Use of a dipeptide for stimulating repair processes” (priority 1998, dated 2003)
